Drawing on PubChem BioAssay (NCI), this text covers TGI and GI50 for 23 compounds.

Among the test systems are NCI-H460 lung; MOLT-4 leukemia; LOX IMVI melanoma; RPMI-8226 leukemia; MCF7 breast; SNB-75 CNS; EKVX NSCLC; UO-31 renal; BT-549 breast; NCI-H522 lung.
Holding throughout (assay): inhibition of tumour cell growth, NCI panel, 48 h

The structures appear in SMILES notation. Values joined by “and” are separate entries in the source; they are usually repeats but may differ in a detail not shown here. Identical values can stand only once.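 These data come from cells grown in 96-well plates and exposed to compound for 48 hours at five concentrations. GI50 marks 50% less growth. Definition used: TGI = concentration required for complete inhibition of growth.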

With `C[C@@H](O)C(=O)N1[C@@H]2CC3CC[C@]2(CS1(=O)=O)C3(C)C`, the TGI in the experiment with NCI-H460 lung, in the experiment on MOLT-4 leukemia, in the experiment on LOX IMVI melanoma, in the experiment on RPMI-8226 leukemia, in the experiment with MCF7 breast and in the experiment on SNB-75 CNS was greater than 100 µM throughout. Besides, the TGI in the experiment on EKVX NSCLC, in the experiment with UO-31 renal and in the experiment with BT-549 breast was greater than 100 µM each time.
For `OCC1OC(n2cnc3cncnc32)C(O)C1O` (configuration not stated), the TGI with NCI-H460 lung came to 1.49 µM; in the experiment with MOLT-4 leukemia, 5.29 µM; in the experiment with LOX IMVI melanoma it was 2.46 µM; with RPMI-8226 leukemia, 7.95 µM; in the experiment with MCF7 breast, 2.15 µM; in the experiment with SNB-75 CNS, 2.15 µM. In addition, the TGI in the experiment with EKVX NSCLC was 4.18 µM; with UO-31 renal, 6.84 µM; in the experiment on NCI-H522 lung, 5.42 µM.
For the compound `Cc1ccc(C(C)(C)C[P+](C)(c2ccccc2)c2ccccc2)cc1`, the TGI in the experiment with NCI-H460 lung is greater than 100 µM; in the experiment on MOLT-4 leukemia, 42.7 µM; in the experiment on LOX IMVI melanoma it was 37.8 µM; in the experiment with RPMI-8226 leukemia it was 6.7 µM; in the experiment with MCF7 breast, greater than 81.2 µM; with SNB-75 CNS, 50.8 µM. Besides, the TGI in the experiment with EKVX NSCLC is greater than 100 µM; with UO-31 renal, greater than 85 µM; in the experiment on NCI-H522 lung, 19.1 µM.
For `O=[N+]([O-])c1ccc2nc(-c3ccccn3)c(-c3ccccn3)nc2c1`, the TGI in the experiment on NCI-H460 lung, in the experiment with MOLT-4 leukemia, in the experiment on RPMI-8226 leukemia, with MCF7 breast, with SNB-75 CNS and in the experiment on EKVX NSCLC was greater than 100 µM each time. The TGI with UO-31 renal, in the experiment with BT-549 breast and in the experiment on NCI-H522 lung was greater than 100 µM throughout.
In the case of `CC1(C)OCC(C(O)C2OC(C)(C)OC2C=O)O1` (configuration not stated), the TGI with MOLT-4 leukemia, in the experiment on LOX IMVI melanoma, in the experiment on RPMI-8226 leukemia, in the experiment with MCF7 breast, in the experiment on SNB-75 CNS and with EKVX NSCLC was greater than 100 µM each time. This compound had a TGI with UO-31 renal greater than 100 µM.
With `O=[N+]([O-])c1ccc(S[C@@H]2[C@H]3c4c(-c5ccccc5)[nH]c(-c5ccccc5)c4[C@@H]2C[C@H]3Cl)cc1`, the TGI with NCI-H460 lung is 12.9 µM; in the experiment with LOX IMVI melanoma it was 15.4 µM; in the experiment on MCF7 breast, 16.5 µM; with SNB-75 CNS, 8.29 µM; with UO-31 renal, 28.4 µM; in the experiment with BT-549 breast, 9.78 µM. For the same compound, the TGI with NCI-H522 lung amounted to 14.1 µM.
As to `CC(=O)OCC1OC(n2c3c(c(-c4cccc5ccccc45)c(C#N)c2=S)CCCC3)C(OC(C)=O)C(OC(C)=O)C1OC(C)=O` (configuration not stated), the TGI is greater than 100 µM in the experiment on NCI-H460 lung; greater than 100 µM in the experiment with MOLT-4 leukemia; greater than 100 µM in the experiment with LOX IMVI melanoma; greater than 100 µM in the experiment with MCF7 breast; greater than 100 µM with EKVX NSCLC; 62.2 µM with UO-31 renal. The compound also displayed a TGI in the experiment with NCI-H522 lung greater than 100 µM.
Consider `C/C(=C\c1ccccn1)c1ccccn1`, for which the TGI with NCI-H460 lung, in the experiment on MOLT-4 leukemia, in the experiment with RPMI-8226 leukemia, in the experiment on MCF7 breast, in the experiment with SNB-75 CNS and in the experiment with EKVX NSCLC was greater than 100 µM each time. In addition, the TGI with UO-31 renal, in the experiment with BT-549 breast and in the experiment with NCI-H522 lung was greater than 100 µM each time.
As for `C/C=C\C(CC(=O)NCCc1cn(C(=O)OCc2ccccc2)c2ccccc12)CC(=O)OC` (configuration not stated), the TGI in the experiment on NCI-H460 lung, in the experiment with MOLT-4 leukemia, in the experiment with RPMI-8226 leukemia, in the experiment on MCF7 breast, with SNB-75 CNS and in the experiment with EKVX NSCLC was greater than 100 µM each time. Besides, the TGI in the experiment on UO-31 renal, in the experiment on BT-549 breast and in the experiment on NCI-H522 lung was greater than 100 µM in each case.
Turning to `N=c1oc2ccc3ccccc3c2cc1C(N)=O`, the TGI in the experiment on NCI-H460 lung, with MOLT-4 leukemia, in the experiment on LOX IMVI melanoma, with RPMI-8226 leukemia, with SNB-75 CNS and in the experiment on BT-549 breast was greater than 100 µM throughout.
As for `O=C(CCN1CCCC1)Nc1ccc2sc3ccccc3c(=O)c2n1`, the TGI with MOLT-4 leukemia came to 17.7 µM; in the experiment on RPMI-8226 leukemia it was 21.9 µM; in the experiment on MCF7 breast, 21.3 µM; in the experiment on SNB-75 CNS, 18.2 µM; with EKVX NSCLC it was 20.1 µM; in the experiment on UO-31 renal it was 16.3 µM. Also, the TGI in the experiment on BT-549 breast came out at 19.2 µM; with NCI-H522 lung it was 15.2 µM.
On to `C/C(=N\NC(=S)N1CCCCC1)c1cccc(C)n1`, for which the TGI in the experiment with NCI-H460 lung was 0.334 µM; in the experiment on MOLT-4 leukemia, greater than 100 µM; in the experiment with LOX IMVI melanoma it was 11.3 µM; with RPMI-8226 leukemia, greater than 100 µM; in the experiment on SNB-75 CNS, 6.19 µM; in the experiment on EKVX NSCLC it was 31.2 µM. The TGI in the experiment with UO-31 renal is 1.53 µM; in the experiment with BT-549 breast, 5.5 µM; with NCI-H522 lung, 10.6 µM.
For `CC[N+]1(C)CCC(O)(/C=C/c2ccc(OC)cc2)C(C(=O)/C=C/c2ccc(OC)cc2)C1` (configuration not stated), the TGI was greater than 35.6 µM in the experiment with NCI-H460 lung; 4.94 µM in the experiment with MOLT-4 leukemia; greater than 22.5 µM with LOX IMVI melanoma; 1.04 µM with RPMI-8226 leukemia; greater than 42.6 µM in the experiment with MCF7 breast; 40.6 µM in the experiment with SNB-75 CNS. Besides, the TGI was greater than 71.1 µM in the experiment on EKVX NSCLC, 26.6 µM in the experiment with UO-31 renal and 49.7 µM in the experiment on BT-549 breast.
As for `c1ccc(CCN2CCc3[nH]c4ccccc4c3C2)cc1`, the TGI with NCI-H460 lung was 30.9 µM; in the experiment with MOLT-4 leukemia, 70.5 µM; in the experiment with LOX IMVI melanoma it was 35.4 µM; with RPMI-8226 leukemia, greater than 10 µM; in the experiment on MCF7 breast it was 40.9 µM; in the experiment on SNB-75 CNS, 68 µM. The TGI with EKVX NSCLC was greater than 100 µM; in the experiment on UO-31 renal, 32 µM.
On to `Nc1cccc2c1C(=O)c1cccc(N)c1C2=O`, for which the TGI in the experiment on NCI-H460 lung, in the experiment with MOLT-4 leukemia, in the experiment on LOX IMVI melanoma, with RPMI-8226 leukemia, with SNB-75 CNS and in the experiment on EKVX NSCLC was greater than 100 µM in each case. The TGI with UO-31 renal and in the experiment on NCI-H522 lung was greater than 100 µM throughout.
On to `COC(=O)C1CCC(=O)N1C(=O)Cc1ccc(OC)cc1` (configuration not stated), for which the TGI in the experiment with NCI-H460 lung, in the experiment with LOX IMVI melanoma, in the experiment on SNB-75 CNS, in the experiment on EKVX NSCLC, with UO-31 renal and in the experiment on NCI-H522 lung was greater than 100 µM in each case.
As for `[Cl][Pt+2][Cl].[NH-]C1CCCCC1[NH-]` (configuration not stated), the GI50 was 1.94 µM and 0.903 µM and 0.287 µM with NCI-H460 lung; 25.1 µM and 19.6 µM and 3.41 µM in the experiment on SNB-75 CNS; 3.31 µM and 5.88 µM and 1.49 µM with NCI-H522 lung. The TGI is 17.9 µM and 36.1 µM and 14 µM in the experiment on NCI-H460 lung; > 51.2 µM and > 96.6 µM and 37.9 µM in the experiment with MOLT-4 leukemia; greater than 59.3 µM in the experiment with LOX IMVI melanoma; greater than 50.5 µM in the experiment on RPMI-8226 leukemia; > 37 µM and > 100 µM and 10.1 µM with MCF7 breast; 97.6 µM and > 77.9 µM and 71 µM with SNB-75 CNS. The TGI is > 100 µM and 55.2 µM and 31.1 µM in the experiment with EKVX NSCLC; greater than 100 µM in the experiment with UO-31 renal; 20.7 µM and 38.2 µM and 12.4 µM in the experiment on NCI-H522 lung.
Regarding `Cn1nc2n(c1=O)CCCN2`, the TGI in the experiment on NCI-H460 lung, in the experiment on LOX IMVI melanoma, in the experiment with RPMI-8226 leukemia, in the experiment with SNB-75 CNS, in the experiment with EKVX NSCLC and in the experiment on NCI-H522 lung was greater than 100 µM in each case.
With `COc1ccc(/C=c2\[nH]c3nc(=O)c(N4CCOCC4)c(N)n3c2=O)cc1`, the TGI with MOLT-4 leukemia is greater than 100 µM; with LOX IMVI melanoma, greater than 100 µM; in the experiment on RPMI-8226 leukemia, greater than 100 µM; in the experiment with MCF7 breast, greater than 100 µM; in the experiment on SNB-75 CNS, 64.5 µM; with EKVX NSCLC it was greater than 100 µM. Also, the TGI with UO-31 renal and with NCI-H522 lung was greater than 100 µM in each case.
For `Cc1ccccc1-n1c(C)nc2c1C(=O)c1ccccc1C2=O`, the TGI in the experiment on NCI-H460 lung is greater than 100 µM; in the experiment with MOLT-4 leukemia it was greater than 100 µM; in the experiment on EKVX NSCLC, greater than 100 µM; with UO-31 renal, greater than 100 µM; in the experiment with NCI-H522 lung, 68.3 µM.
With `Cc1cc(/C=C\c2ccc3ccccc3[n+]2C)c(O)c2ncccc12`, the GI50 in the experiment with NCI-H460 lung is 0.224 µM; with MOLT-4 leukemia, 0.4 µM; with MCF7 breast it was 0.283 µM; with SNB-75 CNS, 1.83 µM; in the experiment with EKVX NSCLC, 0.671 µM; in the experiment on UO-31 renal, 0.405 µM. In addition, the GI50 with BT-549 breast was 0.26 µM; in the experiment with NCI-H522 lung, 1.05 µM. The TGI in the experiment on NCI-H460 lung was 1.82 µM; in the experiment with MOLT-4 leukemia it was greater than 100 µM; with SNB-75 CNS, 7.24 µM; in the experiment with EKVX NSCLC, 7.82 µM; with UO-31 renal, 3.27 µM; with BT-549 breast, 4.63 µM. Moreover, the TGI with NCI-H522 lung came to 5.02 µM.
For the compound `CN(C)c1nc(N(C)C)nc(N(C)C23CC4CC(CC(C4)C2)C3)n1`, the TGI in the experiment on NCI-H460 lung is greater than 100 µM; in the experiment with RPMI-8226 leukemia it was 74.9 µM; in the experiment with MCF7 breast, greater than 100 µM; in the experiment with SNB-75 CNS, 86 µM; with EKVX NSCLC, greater than 100 µM; with UO-31 renal it was greater than 100 µM. Also, the figures for the TGI in the experiment with BT-549 breast and with NCI-H522 lung were 63.4 µM and 41 µM, respectively.
In the case of `COc1cc2c(cc1OCCCC(=O)Nc1cc(C(=O)Nc3cc(C(=O)Nc4cc(C(=O)NCCCN(C)C)n(C)n4)n(C)n3)n(C)n1)N=CC1CCCN1C2=O` (configuration not stated), the TGI with NCI-H460 lung is greater than 100 µM; with MOLT-4 leukemia, greater than 100 µM; with LOX IMVI melanoma, greater than 100 µM; with RPMI-8226 leukemia, greater than 100 µM; in the experiment on MCF7 breast it was greater than 100 µM; in the experiment on SNB-75 CNS, 52.6 µM. The TGI with EKVX NSCLC was greater than 100 µM; in the experiment with UO-31 renal, 16.6 µM; with BT-549 breast it was 37.5 µM.
